{
  "source": "patent US10525046B2",
  "about": "(ACADIA Pharmaceuticals Inc., priority 2003, dated 2020)",
  "key": {"[1]": {"biological_target": "T1, human D2 receptors (Homo sapiens, UniProt P14416)", "T1 sequence (P14416 1-414 isoform P14416-2)": "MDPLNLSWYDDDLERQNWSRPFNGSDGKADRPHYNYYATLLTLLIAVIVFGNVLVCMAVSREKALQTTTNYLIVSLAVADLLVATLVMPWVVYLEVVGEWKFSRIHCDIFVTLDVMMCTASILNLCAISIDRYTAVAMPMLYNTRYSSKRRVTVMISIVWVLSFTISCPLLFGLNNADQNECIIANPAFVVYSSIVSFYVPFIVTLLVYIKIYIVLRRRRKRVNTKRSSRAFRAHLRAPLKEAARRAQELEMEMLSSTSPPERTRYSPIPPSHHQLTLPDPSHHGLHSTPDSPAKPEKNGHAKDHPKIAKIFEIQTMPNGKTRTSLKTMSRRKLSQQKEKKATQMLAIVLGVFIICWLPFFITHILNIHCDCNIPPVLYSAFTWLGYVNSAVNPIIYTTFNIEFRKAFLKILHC", "test": "cell-based"}, "[2]": {"details": "refractory schizophrenic patients; cited from earlier work"}, "[3]": {"biological_target": "human 5HT2A receptors (Homo sapiens, UniProt P28223)", "sequence (P28223 whole entry)": "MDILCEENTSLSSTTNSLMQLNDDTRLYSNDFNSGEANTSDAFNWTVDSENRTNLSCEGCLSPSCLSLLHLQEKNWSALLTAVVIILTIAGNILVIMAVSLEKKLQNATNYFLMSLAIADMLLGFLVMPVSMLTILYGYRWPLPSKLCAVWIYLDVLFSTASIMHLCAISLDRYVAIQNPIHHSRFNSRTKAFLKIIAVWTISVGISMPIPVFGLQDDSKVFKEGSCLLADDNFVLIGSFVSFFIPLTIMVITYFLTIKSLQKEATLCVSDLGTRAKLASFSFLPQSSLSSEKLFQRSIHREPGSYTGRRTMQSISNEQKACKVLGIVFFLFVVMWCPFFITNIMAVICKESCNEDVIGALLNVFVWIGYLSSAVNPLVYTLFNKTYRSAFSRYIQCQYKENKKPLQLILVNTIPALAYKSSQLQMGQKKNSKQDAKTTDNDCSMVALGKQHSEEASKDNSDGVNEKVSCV"}, "[4]": {"biological_target": "T1, human D2 receptors", "details": "R-SAT agonist; short form of the D2 receptor; +/− standard deviation of three to eight determinations"}, "[5]": {"test_system": "hyperactivity induced by MK-801 (dizocilpine)", "test": "MK-801 induced hyperactivity", "assay_type": "in vivo, rats", "from_the_text": "(§1) . In FIG. 2A and 2B, asterisks indicate statistical significance (p<0.05) compared to respective vehicle control. […]"}, "[6]": {"test_system": "spontaneous locomotion", "test": "Spontaneous locomotion", "assay_type": "in vivo", "details": "s.c.; rats (FIG. 2A)", "from_the_text": "as §1"}, "[7]": {"test_system": "levodopa-associated dyskinesias and motor response fluctuations", "test": "Double blind, placebo controlled study in parkinsonian patients", "assay_type": "in vivo", "details": "Patient Group II", "procedure": "[…]. […] […]. The compound of formula (I) is administered once daily for four weeks, with the dose escalating once each week. Assessments are made on the first day of each dose escalation.\nThe study is conducted on an […].\nPatients who participate in the study have particular characteristics. The patients are between 30 and 80 years of age, inclusively. The patients had been diagnosed with idiopathic Parkinson's disease based on the presence of a characteristic clinical history and neurological findings.\nThe sample size is calculated for the primary endpoint: the Unified Parkinson's Disease Rating Scale (UPDRS) part III motor examination. […]. […] In this phase 2 study we will accept a two-sided alpha at a 0.05 significance level. Four patients will be added for the placebo group, totaling 21 subjects enrolled in the study.\nPatients enter the levodopa infusion optimal rate determination (dose finding) portion of the study as soon as all prohibited medication has been withdrawn for at least four weeks.\nIntravenous infusion of levodopa is conducted in an in-patient ward. […]. During the first and second days of optimal rate determination, two baseline UPDRS ratings are performed prior to levodopa infusion. […] Dyskinesia severity is similar to that experienced with each patient's usual therapeutic regimen. Levodopa will be administered by means of an indwelling intravenous catheter. The initial infusion rate of levodopa will not exceed 80 mg/hr.\nLevodopa infusions will ordinarily last up to 8 hours, but may be continued uninterrupted for several days or be repeated on other days to obtain reliable assessment of motor function. The peripheral decarboxylase inhibitor carbidopa (50 mg, given every 3 hours) is administered orally starting at least one hour prior to intravenous administration of levodopa and continuing until levodopa effects have worn off. […]\nThroughout the study, patients are evaluated weekly for drug safety and tolerability during their inpatient admission and two weeks after treatment for an outpatient follow-up visit. […]"}, "[8]": {"test_system": "hyperactivity induced by d-amphetamine", "test": "Amphetamine induced hyperactivity", "assay_type": "in vivo", "details": "mice"}, "[9]": {"test_system": "remaining monoaminergic receptor subtypes", "test": "Intrinsic activity at remaining monoaminergic receptor subtypes"}, "[10]": {"test_system": "L-dopa induced dyskinesias", "test": "L-dopa induced dyskinesia in MPTP monkeys", "details": "s.c.; MPTP dyskinetic primates; dyskinetic movements scored as percentage of placebo (FIG. 3)"}},
  "data": [
    {"smiles": "CC(C)C[C@H]1C(=O)N2CCC[C@H]2[C@]2(O)O[C@](NC(=O)[C@@H]3C=C4c5cccc6[nH]c(Br)c(c56)C[C@H]4N(C)C3)(C(C)C)C(=O)N12", "note": "[Bromocriptine]", "values": [
      {"measurement": "EC50", "setting": "[1]", "value": 0.43, "unit": "nM"}
    ]},
    {"smiles": "CN1CCN(C2=Nc3cc(Cl)ccc3Nc3ccccc32)CC1", "note": "[Clozapine]", "values": [
      {"measurement": "average serum levels associated with therapeutic response", "setting": "[2]", "value": "≥ 250", "unit": "ng/mL"}
    ]},
    {"smiles": "NCCc1ccc(O)c(O)c1", "note": "[Dopamine]", "values": [
      {"measurement": "Potency against serotonin 5-HT2A receptor (FIG. 1B)", "setting": "[3]; R-SAT agonist, reference full agonist serotonin", "value": "no response"}
    ]},
    {"smiles": "CCCN(CCC)CCc1cccc2c1CC(=O)N2", "note": "[Ropinirole]", "values": [
      {"measurement": "Dopamine D2, —Log (EC50)", "setting": "[4]", "value": "8.19 +/− 0.58"},
      {"measurement": "Serotonin 2A, —Log (EC50)", "setting": "[3]", "value": "6.85 +/− 0.77"}
    ]},
    {"smiles": "CC(C)COc1ccc(CNC(=O)N(Cc2ccc(F)cc2)C2CCN(C)CC2)cc1", "note": "[compound of formula (I), N-(1-methylpiperidin-4-yl)-N-(4-flourophenylmethyl)-N′-(4-(2-methylpropyloxy)phenylmethyl)carbamide]", "values": [
      {"measurement": "effect on MK-801 hyperactivity", "setting": "[5]; i.p. administration, 1 mg/kg", "value": "attenuated MK-801 hyperactivity"},
      {"measurement": "minimum effective dose attenuating MK-801 hyperactivity", "setting": "[5]; p.o., rats (FIG. 2B)", "value": 10, "unit": "mg/kg"},
      {"measurement": "minimum effective dose attenuating MK-801 hyperactivity", "setting": "[5]; s.c., rats (FIG. 2A)", "value": 1, "unit": "mg/kg"},
      {"measurement": "doses reducing spontaneous locomotion", "setting": "[6]", "value": "≥ 3", "unit": "mg/kg"},
      {"measurement": "effect on the beneficial effects of levodopa on parkinsonian symptoms", "setting": "[7]; oral", "value": "potentiates the benefical effects of levodopa on parkinsonian symptoms"},
      {"measurement": "levodopa-associated dyskinesias and motor response fluctuations", "setting": "[7]; oral once daily, 30 to 300 mg escalating weekly", "value": "show a reducing in levodopa-associated dyskinesias and motor response fluctuations"},
      {"measurement": "tolerability", "setting": "[7]; oral, 30 to 300 mg", "value": "tolerate the compound of formula (I) at all doses administered"},
      {"measurement": "effect on amphetamine hyperactivity, administered alone", "setting": "[8]; 10.0 mg/kg P.O. and below, 3.0 mg/kg I.P. d-amphetamine", "value": "did not reduce hyperactivity"},
      {"measurement": "amphetamine hyperactivity with the combination", "setting": "[8]; 10.0 mg/kg P.O. compound of formula (I) combined with s.c. haloperidol", "value": "completely reversed"},
      {"measurement": "intrinsic activity at remaining monoaminergic receptor subtypes", "setting": "[9]", "value": "lacks intrinsic activity"},
      {"measurement": "effect on L-dopa induced dyskinesias", "setting": "[10]", "value": "significantly diminish L-dopa induced dyskinesias in a dose dependent manner"}
    ]},
    {"smiles": "O=C(CCCN1CCC(O)(c2ccc(Cl)cc2)CC1)c1ccc(F)cc1", "note": "[haloperidol, reference compound]", "values": [
      {"measurement": "minimally significant dose reducing amphetamine hyperactivity, in combination", "setting": "[8]; haloperidol s.c. with 10.0 mg/kg P.O. compound of formula (I)", "value": 0.03, "unit": "mg/kg"},
      {"measurement": "minimally significant dose reducing amphetamine hyperactivity, alone", "setting": "[8]; s.c., 3.0 mg/kg I.P. d-amphetamine", "value": 0.1, "unit": "mg/kg"}
    ]}
  ]
}
